Data taken from patent publication US20120214802A1, “PYRROLIDINE COMPOUNDS WHICH INHIBIT BETA-SECRETASE ACTIVITY AND METHODS OF USE THEREOF” (priority 2009, published 2012).
Where two headings read alike, the source gives them in different places.

Key:
memapsin 2 [1] = target: memapsin 2 (Homo sapiens, UniProt P56817); assay: Inhibition of memapsin 2 beta-secretase activity (fluorogenic substrate FS-2); assay type: biochemical; conditions: pH 4, 37° C., read-out: M2 Ki
Summary of the method: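 Memapsin 2 pre-incubated with compound for 20 min at pH 4, 37° C. Reaction started with fluorogenic substrate FS-2, […], derived from Swedish-variant APP beta-secretase site; inhibition measured from fluorescence.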

memapsin 2 [2] = target: T1, memapsin 2 (Cricetulus griseus, UniProt G3IAK4); assay: Cellular Aβ IC50 determination (Aβ40 sandwich ELISA); assay type: cell-based, Chinese hamster; conditions: CHO cells over-expressing human APP695 with London and Swedish mutations, 24 h, read-out: M2 IC50
T1 construct: endogenous in cells; host or cells: Chinese hamster ovary cells over-expressing human APP695 (London + Swedish)
Summary of the method: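 CHO cells overexpressing human APP695 (London and Swedish mutations) treated 48 h post-seeding with serially diluted compounds (top near 4 μM, 0.4% DMSO), 24 h at 37° C, 5% CO2. Medium Aβ40 measured by sandwich ELISA; levels relative to control fitted to 4-parameter IC50 model.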

CYP3A4 = target: T2, CYP3A4 (Homo sapiens, UniProt P08684); assay: CYP3A4 inhibition (midazolam metabolism in human liver microsomes); assay type: in vitro ADME; conditions: substrate midazolam
T2 construct: host or cells: human liver microsomes
Method: To evaluate the drug-drug interaction potential for compounds, the potency to inhibit the major metabolic cytochrome CYP450 isoform 3A4 was assessed. The inhibition constant Ki was determined for inhibition of the metabolism of midazolam, a CYP3A4 substrate.
CYP3A4 Ki assays were performed following a recently published protocol with slight modifications (Di, L., Kerns, E. H., Li, S. Q., and Carter, G. T. (2007) Comparison of cytochrome P450 inhibition assays for drug discovery using human liver microsomes with LC-MS, rhCYP450 isozymes with fluorescence, and double cocktail with LC-MS. International Journal of Pharmaceutics 335: 1-11). The P450 inhibition assay was performed in 96-well plates at 37.2° C. in a shaking incubator. The compounds were diluted from 5 mM stocks in 100% DMSO and incubated at seven final concentrations from 0.078 to 10 μM (0.1% DMSO in each final incubation), with human liver microsomes (HLM) at a final protein concentration of 0.1 mg/mL protein and a substrate concentration ranging from 1.25 to 10 μM.
The assay was standardized for both phosphate buffer (100 mM, pH 7.4) and the NADPH regenerating system (MgCl2, 3.3 mM; G6P, 3.3 mM; G6PD, 1 U/ml; NADP+, 1.3 mM). Eight replicate control samples (0.1% DMSO, no compound) were prepared. Assays (200 μL) were set up by mixing HLM+substrate stock, 10 μL of test article in 2% DMSO, and the substrate before initiating the reaction with the addition of the regenerating system mixture. Reactions were quenched following incubation for 20, 30 and 40 minutes as described following.
After incubation for the specified time in a humidified shaking incubator, 20 μL of the reaction mixture was removed and the reactions were terminated by adding 200 μL of cold acetonitrile. Samples were centrifuged at 1000×g for 15 minutes in Solvinert filter plate. The receptor plate was dried via speed vacuum at 40° C. The sample was reconstituted with a reconstitution buffer composed of 10% acetonitrile, 10% DMSO, 80% H2O with an internal standard added at a concentration of 100 ng/ml. MS-Analysis was completed using LC-MS/MS. Formation of 1′-hydroxymidazolam was measured by monitoring a specific SRM (342>203) transition for the CYP3A4 metabolite.
Data were expressed as the relative quantity of midazolam metabolite relative to control incubations. Initial velocities were obtained by multiplying the relative quantity by the initial substrate concentration and dividing by the incubation duration. Data were transformed to inverse of inivital velocity and expressed vs. inhibitor concentration [I] for determination of Ki by the Dixon method (Dixon, M. (1953) Biochemical Journal 55: 170-171) using where intercept [I]=−Ki was determined at multiple substrate concentrations.

[3] = Hepatic intrinsic clearance in liver microsomes; assay type: in vitro ADME; conditions: human, pH 7.4, human liver microsomes
Method: To 500 μl of 200 mM Na^+K^+phosphate buffer (pH 7.4), 100 μl of 1 mM EDTA solution was added followed by 100 μl of 2 mg protein/ml human liver microsomes. A 10 μl aliquot of test compound (20 mM stock in 50% acetonitrile) was diluted further with 40 μl of H2O (total assay volume […]. Assay mixture is incubated for 5 minutes at 37° C. The assay was initiated by addition of 250 μl of 4 mM NADPH solution. Incubation was continued at 37° C. Separate reaction mixtures were prepared for 0, 5, 10, 20, and 30 min durations. Individual reactions were halted by addition of 150 μl of 100% acetonitrile. Internal standard (10 μl of 100 ng/ml diazepam solution) was added. Concentration of the test compound in each separate reaction was measured using LC/MS/MS and a standard curve for the test compound according to standard procedures.
The hepatic intrinsic clearance in liver microsome was determined by the following procedure described by Davies and Morris (Davies, B. and Morris, T. (19930) Physiological parameters in laboratory animals and humans. Pharm Res. 10:1093-1095) detailing the relationship of in vitro clearance to physiological parameters in animals and human subjects.
The amount of compound remaining at each time point was expressed relative to the amount present in the initial (0 min) incubation. The relationship of relative amount vs. time was used to determine the half life of the compound in the microsome assay. The concentration independent rate constant, k1, was determined from rectangular hyperbolic fit:
where T is time (in minutes), from the relationship of relative amount vs. time. Alternatively, k1 was determined from a transform of the equation, where
Conversion to in vivo clearance was obtained from the relation (Davies and Morris, 1993):
where v=velocity of metabolism, [S] is the concentration of the compound, and volumes are expressed in mL.

[4] = in vitro clearance, read-out: HLM CL

T1 sequence (G3IAK4 22-501): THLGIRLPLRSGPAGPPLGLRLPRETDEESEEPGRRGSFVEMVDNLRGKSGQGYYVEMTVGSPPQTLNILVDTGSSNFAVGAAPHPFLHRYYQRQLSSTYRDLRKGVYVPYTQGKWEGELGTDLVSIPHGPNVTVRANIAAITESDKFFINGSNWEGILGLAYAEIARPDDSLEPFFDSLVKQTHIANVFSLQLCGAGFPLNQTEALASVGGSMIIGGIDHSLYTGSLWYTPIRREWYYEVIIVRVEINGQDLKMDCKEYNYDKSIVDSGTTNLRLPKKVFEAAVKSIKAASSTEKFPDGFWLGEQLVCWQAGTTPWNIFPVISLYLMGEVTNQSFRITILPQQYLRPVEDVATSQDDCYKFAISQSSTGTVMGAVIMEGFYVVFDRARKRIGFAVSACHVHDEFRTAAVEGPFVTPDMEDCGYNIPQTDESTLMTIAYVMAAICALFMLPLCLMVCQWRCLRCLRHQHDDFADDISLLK
T2 sequence (P08684 whole entry): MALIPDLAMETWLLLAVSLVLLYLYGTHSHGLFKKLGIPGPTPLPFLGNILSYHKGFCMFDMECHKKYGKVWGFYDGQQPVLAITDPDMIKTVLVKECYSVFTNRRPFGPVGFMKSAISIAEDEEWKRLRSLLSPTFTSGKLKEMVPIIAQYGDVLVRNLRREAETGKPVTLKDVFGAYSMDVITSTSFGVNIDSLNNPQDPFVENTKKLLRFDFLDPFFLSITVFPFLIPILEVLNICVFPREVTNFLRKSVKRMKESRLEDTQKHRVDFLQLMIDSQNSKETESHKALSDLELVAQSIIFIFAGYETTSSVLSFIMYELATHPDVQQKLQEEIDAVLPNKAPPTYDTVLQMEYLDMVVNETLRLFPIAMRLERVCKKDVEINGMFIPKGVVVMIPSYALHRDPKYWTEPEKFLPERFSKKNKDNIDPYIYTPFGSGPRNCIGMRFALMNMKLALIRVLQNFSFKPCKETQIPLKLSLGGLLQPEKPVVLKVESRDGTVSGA
memapsin 2 (Homo sapiens, UniProt P56817), sequence (P56817 46-501): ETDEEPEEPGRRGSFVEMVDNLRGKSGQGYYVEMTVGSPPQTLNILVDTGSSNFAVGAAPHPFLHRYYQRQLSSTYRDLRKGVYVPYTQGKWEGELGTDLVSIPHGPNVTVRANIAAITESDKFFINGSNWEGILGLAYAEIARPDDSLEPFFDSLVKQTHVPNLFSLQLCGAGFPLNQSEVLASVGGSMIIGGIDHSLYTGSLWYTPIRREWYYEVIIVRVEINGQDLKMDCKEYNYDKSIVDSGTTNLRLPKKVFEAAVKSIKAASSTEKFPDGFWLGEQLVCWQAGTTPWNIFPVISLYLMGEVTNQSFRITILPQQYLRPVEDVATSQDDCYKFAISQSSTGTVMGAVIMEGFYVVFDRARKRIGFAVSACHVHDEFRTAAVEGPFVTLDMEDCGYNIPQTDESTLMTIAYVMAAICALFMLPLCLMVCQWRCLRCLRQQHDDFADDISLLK

SMILES | Ki (memapsin 2 [1]) | IC50 (memapsin 2 [2]) | Ki (CYP3A4; read-out: CYP 3A4Ki) | CLint scaled at 200 μM [3, 4] | Ki (CYP3A4) | CLint scaled at 200 μM ([3]; read-out: hepatic intrinsic clearance in liver microsomes (HLMCL))
Cc1csc([C@H]2CCCN2C(=O)c2cc(C(=O)N[C@@H](Cc3ccccc3)[C@H](O)[C@H]3CCCN3)cc(-n3cccc3)c2)n1 [1-16, N-((1R,2S)-1-hydroxy-3-phenyl-1-((R)-pyrrolidin-2-yl)propan-2-yl)-3-((R)-2-(4-methylthiazol-2-yl)pyrrolidine-1-carbonyl)-5-(1H-pyrrol-1-yl)benzamide] | < 250 nM | 500 to 1000 nM | 1000 to 5000 nM | < 400 mL/min/kg | – | –
Cc1csc(CN(C)C(=O)c2cccc(C(=O)N[C@@H](Cc3ccccc3)[C@H](O)[C@H]3C[C@@H](OCc4ccccc4)CN3)c2)n1 [1-9, N1-((1R,2S)-1-((2R,4R)-4-(benzyloxy)pyrrolidin-2-yl)-1-hydroxy-3-phenylpropan-2-yl)-N3-methyl-N3-((4-methylthiazol-2-yl)methyl)isophthalamide] | < 250 nM | < 500 nM | 1000 to 5000 nM | < 400 mL/min/kg | – | –
Cc1csc(CN(C)C(=O)c2cccc(C(=O)N[C@@H](Cc3cc(F)cc(F)c3)[C@H](O)[C@H]3CCCN3)c2)n1 [1-41, N1-((1R,2S)-3-(3,5-difluorophenyl)-1-hydroxy-1-((R)-pyrrolidin-2-yl)propan-2-yl)-N3-methyl-N3-((4-methylthiazol-2-yl)methyl)isophthalamide] | < 250 nM | > 1000 nM | > 10000 nM | < 400 mL/min/kg | – | –
Cc1csc(CN(C)C(=O)c2cc(C(=O)N[C@@H](Cc3ccccc3)[C@H](O)[C@H]3CCCN3)cc(-n3cccc3)c2)n1 [1-13, N1-((1R,2S)-1-hydroxy-3-phenyl-1-((R)-pyrrolidin-2-yl)propan-2-yl)-N3-methyl-N3-((4-methylthiazol-2-yl)methyl)-5-(1H-pyrrol-1-yl)isophthalamide] | < 250 nM | 500 to 1000 nM | 5000 to 10000 nM | < 400 mL/min/kg | – | –
Cc1coc([C@H]2CCCN2C(=O)c2cc(C(=O)N[C@@H](Cc3ccccc3)[C@H](O)[C@H]3CCCN3)cc(-c3ncco3)c2)n1 [1-17, N-((1R,2S)-1-hydroxy-3-phenyl-1-((R)-pyrrolidin-2-yl)propan-2-yl)-3-((R)-2-(4-methyloxazol-2-yl)pyrrolidine-1-carbonyl)-5-(oxazol-2-yl)benzamide] | < 250 nM | < 500 nM | > 10000 nM | < 400 mL/min/kg | – | –
Cc1cc(C(=O)N[C@@H](Cc2ccccc2)[C@H](O)[C@H]2CCCN2)cc(C(=O)N2CCC[C@@H]2c2nc(C)co2)c1 [1-8, N-((1R,2S)-1-hydroxy-3-phenyl-1-((R)-pyrrolidin-2-yl)propan-2-yl)-3-methyl-5-((R)-2-(4-methyloxazol-2-yl)pyrrolidine-1-carbonyl)benzamide] | 250 to 750 nM | > 1000 nM | > 10000 nM | < 400 mL/min/kg | – | –
Cc1csc([C@H]2CCCN2C(=O)c2cccc(C(=O)N[C@@H](Cc3ccccc3)[C@H](O)[C@H]3CCCN3)c2)n1 [1-40, N-((1R,2S)-1-hydroxy-3-phenyl-1-((R)-pyrrolidin-2-yl)propan-2-yl)-3-((R)-2-(4-methylthiazol-2-yl)pyrrolidine-1-carbonyl)benzamide] | < 250 nM | 500 to 1000 nM | 5000 to 10000 nM | < 400 mL/min/kg | – | –
Cc1csc([C@H]2CCCN2C(=O)c2cc(F)cc(C(=O)N[C@@H](Cc3ccccc3)[C@H](O)[C@H]3CCCN3)c2)n1 [1-32, 3-fluoro-N-((1R,2S)-1-hydroxy-3-phenyl-1-((R)-pyrrolidin-2-yl)propan-2-yl)-5-((R)-2-(4-methylthiazol-2-yl)pyrrolidine-1-carbonyl)benzamide] | < 250 nM | > 1000 nM | 5000 to 10000 nM | < 400 mL/min/kg | – | –
Cc1csc([C@H]2CCCN2C(=O)c2cc(C(=O)N[C@@H](Cc3ccccc3)[C@H](O)[C@H]3CCCN3)cc(C(F)F)c2)n1 [1-14, 3-(difluoromethyl)-N-((1R,2S)-1-hydroxy-3-phenyl-1-((R)-pyrrolidin-2-yl)propan-2-yl)-5-((R)-2-(4-methylthiazol-2-yl)pyrrolidine-1-carbonyl)benzamide] | < 250 nM | < 500 nM | 1000 to 5000 nM | < 400 mL/min/kg | – | –

Continued, values first:

Ki (memapsin 2 [1]) | IC50 (memapsin 2 [2]) | Ki (CYP3A4; read-out: CYP 3A4Ki) | CLint scaled at 200 μM [3, 4] | Ki (CYP3A4) | CLint scaled at 200 μM ([3]; read-out: hepatic intrinsic clearance in liver microsomes (HLMCL)) | SMILES
< 250 nM | < 500 nM | < 1000 nM | > 700 mL/min/kg | – | – | Cc1csc([C@H]2CCCN2C(=O)c2cc(C(=O)N[C@@H](Cc3ccccc3)[C@H](O)CNCc3cncc(C(C)C)c3)cc(-c3ccco3)c2)n1 [2-2, 3-(furan-2-yl)-N-((2S,3R)-3-hydroxy-4-((5-isopropylpyridin-3-yl)methylamino)-1-phenylbutan-2-yl)-5-((R)-2-(4-methylthiazol-2-yl)pyrrolidine-1-carbonyl)benzamide, reference compound]
< 250 nM | < 500 nM | < 1000 nM | > 700 mL/min/kg | 717 nM | > 1000 mL/min/kg | Cc1cc(C(=O)N[C@@H](Cc2ccccc2)[C@H](O)CNCc2cncc(C(C)(C)C)c2)cc(C(=O)N2CCC[C@@H]2c2nc(C)co2)c1 [2-3, N-((2S,3R)-4-((5-tert-butylpyridin-3-yl)methylamino)-3-hydroxy-1-phenylbutan-2-yl)-3-methyl-5-((R)-2-(4-methyloxazol-2-yl)pyrrolidine-1-carbonyl)benzamide, reference compound]
< 250 nM | < 500 nM | < 1000 nM | > 700 mL/min/kg | – | – | Cc1coc([C@H]2CCCN2C(=O)c2cccc(C(=O)N[C@@H](Cc3ccccc3)[C@H](O)CNCc3cncc(C(C)(C)C)c3)c2)n1 [2-4, N-((2S,3R)-4-((5-tert-butylpyridin-3-yl)methylamino)-3-hydroxy-1-phenylbutan-2-yl)-3-((R)-2-(4-methyloxazol-2-yl)pyrrolidine-1-carbonyl)benzamide, reference compound]
< 250 nM | < 500 nM | 1000 to 5000 nM | > 700 mL/min/kg | – | – | CCn1cc(CNC[C@@H](O)[C@H](Cc2ccccc2)NC(=O)c2cc(C)cc(C(=O)N3CCC[C@@H]3c3nc(C)co3)c2)cn1 [2-5, N-((2S,3R)-4-((1-ethyl-1H-pyrazol-4-yl)methylamino)-3-hydroxy-1-phenylbutan-2-yl)-3-methyl-5-((R)-2-(4-methyloxazol-2-yl)pyrrolidine-1-carbonyl)benzamide, reference compound]
